Article PMC5218480 (PLoS ONE, 2017)

System: MV-4-11 cells
Test: Gene expression microarray analysis (Affymetrix PrimeView) and GSEA
Format: cell-based, human
Design: RFU PODN (11730768_x_at) / Fold change /veh PODN (11730768_x_at) / RFU LINC00158 (11744669_a_at) / Fold change /veh LINC00158 (11744669_a_at) / RFU DUSP10 (11751237_a_at) / Fold change /veh DUSP10 (11751237_a_at) / RFU ID3 (11757404_x_at) / Fold change /veh ID3 (11757404_x_at) / RFU PLEKHG5 (11737974_s_at) / Fold change /veh PLEKHG5 (11737974_s_at) / RFU LRRC4B (11730491_at) / Fold change /veh LRRC4B (11730491_at) / RFU GIMAP4 (11747438_a_at) / Fold change /veh GIMAP4 (11747438_a_at) / RFU KRT8 (11758183_x_at) / Fold change /veh KRT8 (11758183_x_at) / RFU CNN1 (11734310_a_at) / Fold change /veh CNN1 (11734310_a_at) / RFU VPS37D (11726825_at) / Fold change /veh VPS37D (11726825_at) / RFU C10orf10 (11716522_x_at) / Fold change /veh C10orf10 (11716522_x_at) / RFU KIR2DL2 /// KIR2DL4 /// KIR2DL5A /// KIR2DL5B /// KIR2DS1 /// KIR2DS2 /// KIR2DS3 /// KIR2DS4 /// KIR3DL3 /// KIR3DL3 /// KIR3DS1 (11738374_at) / Fold change /veh KIR2DL2 /// KIR2DL4 /// KIR2DL5A /// KIR2DL5B /// KIR2DS1 /// KIR2DS2 /// KIR2DS3 /// KIR2DS4 /// KIR3DL3 /// KIR3DL3 /// KIR3DS1 (11738374_at) / RFU C1QL1 (11718748_at) / Fold change /veh C1QL1 (11718748_at) / RFU TMPRSS4 (11747572_a_at) / Fold change /veh TMPRSS4 (11747572_a_at) / RFU HAMP (11756126_x_at) / Fold change /veh HAMP (11756126_x_at) / RFU RNFT2 (11725882_a_at) / Fold change /veh RNFT2 (11725882_a_at) / RFU NR4A2 (11747474_a_at) / Fold change /veh NR4A2 (11747474_a_at) / RFU ABCC12 (11746883_a_at) / Fold change /veh ABCC12 (11746883_a_at) / RFU TMEM136 (11760407_x_at) / Fold change /veh TMEM136 (11760407_x_at) / RFU CLDN22 /// WWC2 (11732394_at) / Fold change /veh CLDN22 /// WWC2 (11732394_at) / RFU HLA-DPB1 (11760878_x_at) / Fold change /veh HLA-DPB1 (11760878_x_at) / RFU SPINT1 (11716480_a_at) / Fold change /veh SPINT1 (11716480_a_at) / RFU GAP43 (11754022_s_at) / Fold change /veh GAP43 (11754022_s_at) / RFU A4GNT (11735810_at) / Fold change /veh A4GNT (11735810_at) / RFU PRB3 (11715151_x_at) / Fold change /veh PRB3 (11715151_x_at) / RFU TUBB4B (11761932_at) / Fold change /veh TUBB4B (11761932_at) / RFU CAPN14 (11732068_a_at) / Fold change /veh CAPN14 (11732068_a_at) / RFU TMCC2 (11721928_a_at) / Fold change /veh TMCC2 (11721928_a_at) / RFU IRGQ (11745062_a_at) / Fold change /veh IRGQ (11745062_a_at) / RFU FAM174B (11720279_a_at) / Fold change /veh FAM174B (11720279_a_at) / RFU TMPRSS4 (11748680_a_at) / Fold change /veh TMPRSS4 (11748680_a_at) / RFU FAM212B (11763350_a_at) / Fold change /veh FAM212B (11763350_a_at) / RFU PLEKHG5 (11743358_a_at) / Fold change /veh PLEKHG5 (11743358_a_at) / RFU ZSCAN30 (11745921_a_at) / Fold change /veh ZSCAN30 (11745921_a_at) / RFU CMKLR1 (11741424_a_at) / Fold change /veh CMKLR1 (11741424_a_at) / RFU LOC101060620 /// MAPK8IP1 (11723275_at) / Fold change /veh LOC101060620 /// MAPK8IP1 (11723275_at) / RFU SPTSSB (11747773_x_at) / Fold change /veh SPTSSB (11747773_x_at) / RFU PRSS12 (11739890_at) / Fold change /veh PRSS12 (11739890_at) / RFU BIN1 (11741810_x_at) / Fold change /veh BIN1 (11741810_x_at) / RFU WNT11 (11732464_a_at) / Fold change /veh WNT11 (11732464_a_at) / RFU C10orf10 (11716521_a_at) / Fold change /veh C10orf10 (11716521_a_at) / RFU C5orf56 (11738089_at) / Fold change /veh C5orf56 (11738089_at) / RFU CYB561 (11721691_x_at) / Fold change /veh CYB561 (11721691_x_at) / RFU ANKRD19P (11752326_a_at) / Fold change /veh ANKRD19P (11752326_a_at) / RFU OR2T12 /// OR2T33 /// OR2T8 (11738714_s_at) / Fold change /veh OR2T12 /// OR2T33 /// OR2T8 (11738714_s_at) / RFU VCAN (11748164_a_at) / Fold change /veh VCAN (11748164_a_at) / RFU JSRP1 (11732532_at) / Fold change /veh JSRP1 (11732532_at) / RFU KRTAP10-11 (11738290_x_at) / Fold change /veh KRTAP10-11 (11738290_x_at) / RFU MYO3A (11730013_a_at) / Fold change /veh MYO3A (11730013_a_at) / RFU EBF3 (11725865_a_at) / Fold change /veh EBF3 (11725865_a_at) / RFU CAMK2N1 (11719241_x_at) / Fold change /veh CAMK2N1 (11719241_x_at) / RFU C5orf56 (11738088_a_at) / Fold change /veh C5orf56 (11738088_a_at) / RFU OLFML3 (11715873_a_at) / Fold change /veh OLFML3 (11715873_a_at) / RFU LOC100653217 /// NTM (11731650_a_at) / Fold change /veh LOC100653217 /// NTM (11731650_a_at) / RFU MAPK11 (11762145_a_at) / Fold change /veh MAPK11 (11762145_a_at) / RFU FIZ1 (11724087_x_at) / Fold change /veh FIZ1 (11724087_x_at) / RFU OASL (11726364_x_at) / Fold change /veh OASL (11726364_x_at) / RFU SOX15 (11748057_x_at) / Fold change /veh SOX15 (11748057_x_at) / RFU CD79A (11719716_a_at) / Fold change /veh CD79A (11719716_a_at) / RFU HIST1H1D (11736915_at) / Fold change /veh HIST1H1D (11736915_at) / RFU CASKIN2 (11723855_a_at) / Fold change /veh CASKIN2 (11723855_a_at) / RFU LOC730098 (11760151_x_at) / Fold change /veh LOC730098 (11760151_x_at) / RFU OR4N2 (11742367_at) / Fold change /veh OR4N2 (11742367_at) / RFU PRRT2 (11749266_a_at) / Fold change /veh PRRT2 (11749266_a_at) / RFU SNX32 (11753110_a_at) / Fold change /veh SNX32 (11753110_a_at) / RFU CDHR5 (11726645_a_at) / Fold change /veh CDHR5 (11726645_a_at) / RFU RCAN1 (11760418_a_at) / Fold change /veh RCAN1 (11760418_a_at) / RFU FAM167A (11723789_a_at) / Fold change /veh FAM167A (11723789_a_at) / RFU FAM26E (11764081_at) / Fold change /veh FAM26E (11764081_at) / RFU ISYNA1 (11749810_s_at) / Fold change /veh ISYNA1 (11749810_s_at) / RFU ACY1 (11761880_at) / Fold change /veh ACY1 (11761880_at) / RFU 11764098_at / Fold change /veh 11764098_at / RFU SAMD14 (11745864_x_at) / Fold change /veh SAMD14 (11745864_x_at) / RFU NPB (11741838_a_at) / Fold change /veh NPB (11741838_a_at) / RFU TMPRSS6 (11731388_a_at) / Fold change /veh TMPRSS6 (11731388_a_at) / RFU KRTAP10-2 (11738614_at) / Fold change /veh KRTAP10-2 (11738614_at) / RFU ARHGAP8 /// PRR5-ARHGAP8 (11727945_x_at) / Fold change /veh ARHGAP8 /// PRR5-ARHGAP8 (11727945_x_at) / RFU KRTAP5-7 /// NADSYN1 (11734609_at) / Fold change /veh KRTAP5-7 /// NADSYN1 (11734609_at) / RFU RASL12 (11751679_a_at) / Fold change /veh RASL12 (11751679_a_at) / RFU CDKN2B (11736163_a_at) / Fold change /veh CDKN2B (11736163_a_at) / RFU PRF1 (11729649_at) / Fold change /veh PRF1 (11729649_at) / RFU, ZNF638 /// ZNF638-IT1 / Fold change vs veh, ZNF638 /// ZNF638-IT1 / RFU, PANK3 / Fold change vs veh, PANK3 / RFU, SH3YL1 / Fold change vs veh, SH3YL1 / RFU, ZEB2 / Fold change vs veh, ZEB2 / RFU, NRIP1 / Fold change vs veh, NRIP1 / RFU, PTTG1IP / Fold change vs veh, PTTG1IP / RFU, CAPN2 / Fold change vs veh, CAPN2 / RFU, MED14 / Fold change vs veh, MED14 / RFU, SNORA58 / Fold change vs veh, SNORA58 / RFU, C1orf63 / Fold change vs veh, C1orf63 / RFU, LRRFIP1 / Fold change vs veh, LRRFIP1 / RFU, NDUFAF7 / Fold change vs veh, NDUFAF7 / RFU, SLC12A2 / Fold change vs veh, SLC12A2 / RFU, IBTK / Fold change vs veh, IBTK / RFU, ESF1 / Fold change vs veh, ESF1 / Fold change vs veh, TMEM50B / RFU, TAOK1 / Fold change vs veh, TAOK1 / RFU, ACBD3 / Fold change vs veh, ACBD3 / RFU, TMA16 / Fold change vs veh, TMA16 / RFU, RWDD3 / Fold change vs veh, RWDD3 / RFU, BCAT1 / Fold change vs veh, BCAT1 / RFU, EDEM3 / Fold change vs veh, EDEM3 / RFU, TMEM33 / Fold change vs veh, TMEM33 / RFU, WDR75 / Fold change vs veh, WDR75 / RFU, AHCTF1 / Fold change vs veh, AHCTF1 / RFU, TFRC / Fold change vs veh, TFRC / RFU, ZDHHC17 / Fold change vs veh, ZDHHC17 / RFU, NOM1 / Fold change vs veh, NOM1 / RFU, ARL8B / Fold change vs veh, ARL8B / RFU, ZBTB11 / Fold change vs veh, ZBTB11 / RFU, TAMM41 / Fold change vs veh, TAMM41 / RFU, KIAA1704 /// LOC100996395 / Fold change vs veh, KIAA1704 /// LOC100996395 / RFU, ING1 / Fold change vs veh, ING1 / RFU, TRMT61B / Fold change vs veh, TRMT61B / RFU, FUBP3 / Fold change vs veh, FUBP3 / RFU, TP53 / Fold change vs veh, TP53 / RFU, TNKS2 / Fold change vs veh, TNKS2 / RFU, ZFP14 / Fold change vs veh, ZFP14 / RFU, ACTR2 / Fold change vs veh, ACTR2 / RFU, PPP3R1 / Fold change vs veh, PPP3R1 / RFU, PIK3R1 / Fold change vs veh, PIK3R1 / RFU, HNRNPA1 / Fold change vs veh, HNRNPA1 / RFU, RNF170 / Fold change vs veh, RNF170 / RFU, ZNF28 / Fold change vs veh, ZNF28 / RFU, RNGTT / Fold change vs veh, RNGTT / RFU, OGT / Fold change vs veh, OGT / RFU, BRD1 / Fold change vs veh, BRD1 / RFU, MARS / Fold change vs veh, MARS / RFU, ZNF655 / Fold change vs veh, ZNF655 / RFU, FAHD1 / Fold change vs veh, FAHD1 / RFU, BDP1 / Fold change vs veh, BDP1 / RFU, LRRCC1 / Fold change vs veh, LRRCC1 / RFU, ARID1A / Fold change vs veh, ARID1A / RFU, ZNF146 / Fold change vs veh, ZNF146 / RFU, ZNF330 / Fold change vs veh, ZNF330 / RFU, GPN3 / Fold change vs veh, GPN3 / RFU, C9orf123 / Fold change vs veh, C9orf123 / RFU, N4BP2L2 / Fold change vs veh, N4BP2L2 / RFU, ARFIP1 / Fold change vs veh, ARFIP1 / RFU, FAM179B / Fold change vs veh, FAM179B / RFU, BCL10 / Fold change vs veh, BCL10 / RFU, UHRF1BP1L / Fold change vs veh, UHRF1BP1L / RFU, BET1 / Fold change vs veh, BET1 / RFU, CNOT2 / Fold change vs veh, CNOT2 / RFU, ZNF268 / Fold change vs veh, ZNF268 / Fold change vs veh, ZNF507 / RFU, DGCR2 / Fold change vs veh, DGCR2 / RFU, WDSUB1 / Fold change vs veh, WDSUB1 / Fold change vs veh, HSP90B1 /// MIR3652 / RFU, ADSS / Fold change vs veh, ADSS / RFU, GK / Fold change vs veh, GK / RFU, ZNF148 / Fold change vs veh, ZNF148 / RFU, TAF9 / Fold change vs veh, TAF9 / RFU, SLC1A5 / Fold change vs veh, SLC1A5 / RFU, SLMO2 / Fold change vs veh, SLMO2 / RFU, ABCC4 / Fold change vs veh, ABCC4 / RFU, LOC101060439 /// RAP1B / Fold change vs veh, LOC101060439 /// RAP1B / RFU, RFX7 / Fold change vs veh, RFX7 / RFU, GTPBP10 / Fold change vs veh, GTPBP10 / RFU, CNEP1R1 / Fold change vs veh, CNEP1R1 / RFU, BIVM-ERCC5 /// ERCC5 / Fold change vs veh, BIVM-ERCC5 /// ERCC5 / RFU, ILF3 / Fold change vs veh, ILF3 / RFU 11762660_at / Fold change /veh 11762660_at / RFU VCAN (11757783_s_at) / Fold change /veh VCAN (11757783_s_at) / RFU DDX43 (11728927_at) / Fold change /veh DDX43 (11728927_at) / RFU KRT8 (11758188_x_at) / Fold change /veh KRT8 (11758188_x_at) / RFU NKD1 (11759106_at) / Fold change /veh NKD1 (11759106_at) / RFU SRD5A1 (11742802_a_at) / Fold change /veh SRD5A1 (11742802_a_at) / RFU TPSAB1 /// TPSB2 (11721975_s_at) / Fold change /veh TPSAB1 /// TPSB2 (11721975_s_at) / RFU GSTM3 (11746129_a_at) / Fold change /veh GSTM3 (11746129_a_at) / RFU IL23R (11737362_x_at) / Fold change /veh IL23R (11737362_x_at) / RFU TMEM51 (11727254_a_at) / Fold change /veh TMEM51 (11727254_a_at) / RFU PIWIL2 (11732686_x_at) / Fold change /veh PIWIL2 (11732686_x_at) / RFU ORM1 (11744905_x_at) / Fold change /veh ORM1 (11744905_x_at) / RFU CCDC152 (11743942_at) / Fold change /veh CCDC152 (11743942_at) / RFU ECM1 (11717891_a_at) / Fold change /veh ECM1 (11717891_a_at) / RFU IL23R (11748794_a_at) / Fold change /veh IL23R (11748794_a_at) / RFU TNFAIP8L3 (11732012_x_at) / Fold change /veh TNFAIP8L3 (11732012_x_at) / RFU MBOAT4 (11741988_at) / Fold change /veh MBOAT4 (11741988_at) / RFU 11764193_at / Fold change /veh 11764193_at / RFU TMEM53 (11763286_at) / Fold change /veh TMEM53 (11763286_at) / RFU MAGEB2 (11727129_at) / Fold change /veh MAGEB2 (11727129_at) / RFU TMEM200A (11744735_a_at) / Fold change /veh TMEM200A (11744735_a_at) / RFU CCDC152 (11751479_a_at) / Fold change /veh CCDC152 (11751479_a_at) / RFU FAM211A (11726209_a_at) / Fold change /veh FAM211A (11726209_a_at) / RFU RGS16 (11746705_a_at) / Fold change /veh RGS16 (11746705_a_at) / RFU VCAN (11755009_s_at) / Fold change /veh VCAN (11755009_s_at) / RFU RHOB (11743442_s_at) / Fold change /veh RHOB (11743442_s_at) / RFU RGS16 (11720943_a_at) / Fold change /veh RGS16 (11720943_a_at) / RFU RGS16 (11720944_at) / Fold change /veh RGS16 (11720944_at) / RFU, VPS4B / Fold change vs veh, VPS4B / RFU, CREB1 / Fold change vs veh, CREB1 / RFU, DNAJC13 / Fold change vs veh, DNAJC13 / RFU, GNAQ / Fold change vs veh, GNAQ / RFU, CDK5R1 / Fold change vs veh, CDK5R1 / RFU, ZRANB3 / Fold change vs veh, ZRANB3 / RFU, CUL4A / Fold change vs veh, CUL4A / RFU, CCNY / Fold change vs veh, CCNY / RFU, UFL1 / Fold change vs veh, UFL1 / RFU, COG3 / Fold change vs veh, COG3 / RFU, DIAPH2 / Fold change vs veh, DIAPH2 / RFU, SKA2 / Fold change vs veh, SKA2 / RFU, AFF3 / Fold change vs veh, AFF3 / RFU, LMF1 / Fold change vs veh, LMF1 / RFU, IPO11 / Fold change vs veh, IPO11 / RFU, DFFB / Fold change vs veh, DFFB / RFU, FOXP1 / Fold change vs veh, FOXP1 / RFU, CARD8 / Fold change vs veh, CARD8 / RFU, STRN3 / Fold change vs veh, STRN3 / RFU, ADK / Fold change vs veh, ADK / RFU, RASSF2 / Fold change vs veh, RASSF2 / RFU, WIPF1 / Fold change vs veh, WIPF1 / RFU, LARP1B / Fold change vs veh, LARP1B / RFU, RASA1 / Fold change vs veh, RASA1 / RFU, RB1 / Fold change vs veh, RB1 / RFU, PPFIA1 / Fold change vs veh, PPFIA1 / RFU, MAT2A / Fold change vs veh, MAT2A / RFU, CCT5 / Fold change vs veh, CCT5 / RFU, WDR92 / Fold change vs veh, WDR92 / RFU, CUX1 / Fold change vs veh, CUX1 / RFU, TTC7A / Fold change vs veh, TTC7A / RFU, TMEM135 / Fold change vs veh, TMEM135 / RFU, DEPTOR / Fold change vs veh, DEPTOR / RFU, CPM / Fold change vs veh, CPM / RFU, DNAJB6 / Fold change vs veh, DNAJB6 / RFU, CACNA2D3 / Fold change vs veh, CACNA2D3 / RFU, DTX4 / Fold change vs veh, DTX4 / RFU, TFCP2 / Fold change vs veh, TFCP2 / RFU, GMCL1 /// GMCL1P1 / Fold change vs veh, GMCL1 /// GMCL1P1 / RFU, AEBP2 / Fold change vs veh, AEBP2 / RFU, SNHG1 /// SNORD22 /// SNORD25 /// SNORD26 /// SNORD27 /// SNORD28 /// SNORD29 /// SNORD31 / Fold change vs veh, SNHG1 /// SNORD22 /// SNORD25 /// SNORD26 /// SNORD27 /// SNORD28 /// SNORD29 /// SNORD31 / Fold change (Aza/veh), C12orf56 (ProbeSet 11735607_a_at) / Fold change (ACY-1035/veh), C12orf56 (ProbeSet 11735607_a_at) / Fold change (Aza/veh), FGFR1OP (ProbeSet 11751329_s_at) / Fold change (ACY-1035/veh), FGFR1OP (ProbeSet 11751329_s_at) / Fold change (Aza/veh), VPS36 (ProbeSet 11739960_a_at) / Fold change (ACY-1035/veh), VPS36 (ProbeSet 11739960_a_at) / RFU SYPL1 (11715823_x_at) / Fold change /veh SYPL1 (11715823_x_at) / RFU IGFBP7 (11715501_s_at) / Fold change /veh IGFBP7 (11715501_s_at) / RFU REEP3 (11722064_at) / Fold change /veh REEP3 (11722064_at) / RFU IGLL1 (11728026_x_at) / Fold change /veh IGLL1 (11728026_x_at): dose or concentration left out as unconfirmed
Conditions: MV-4-11 cells, 48 hours

Nc1ncn([C@@H]2O[C@H](CO)[C@@H](O)[C@H]2O)c(=O)n1 [azacitidine]
Fold change /veh CAPN14 (11732068_a_at): 1.07
